Results on one compound are retold here after US20070149555A1, “Prophylatic and/or therapeutic agents for chronic musculoskeletal pain” (Kyowa Hakko Kogyo Co., Ltd, priority 2004, published 2007).

Assay [1] relates to acidic physiological saline-induced hyperalgesia model. The assay is described as follows: Preventive effect on development of hyperalgesia in a rat model (acidic physiological saline, von Frey test). Type of assay: in vivo. The note with it: male SD rats, 3 mg/kg orally once daily for 10 days, measured on the day following the final administration (FIG. 2). The protocol: Test Example 2: Preventive Effect on Development of Hyperalgesia in a Rat Model The following experiment was carried out according to the method as described in Test Example 1. In this test, male SD rats (Sprague-Dawley rats; 6 weeks of age at the start of the test) were employed as 10 rats for each treatment-group. Under ether anesthesia, 100 μl of physiological saline adjusted to pH 4 with acetic acid was injected to the rat's right gastrocnemius muscle twice at an interval of 5 days. Thirty minutes after the 2nd injection and once daily thereafter, a test compound or solvent was administered repeatedly at a volume of 5 ml/kg to the above rats for a total of 10 days. The test compound was used as a suspension in 0.5% MC aqueous solution and orally administered (a group treated with Test Compound), and in a group to which a solvent was administered 0.5% MC aqueous solution alone was orally administered (a group treated with Solvent). On the day following the final administration, the pain threshold (g) was measured in the same manner as the von Frey test as described in Test Example 1. The above rats were placed in a stainless steel cage (750width×210depth×170height in mm) and accommodated thereto for at least 20 minutes; after that the measurement was conducted. From the above results, the followings were elucidated.

Assay [2] deals with hyperalgesia rats induced with an acidic physiological saline. In words: Effect for pain relief in a hyperalgesia model of rat (acidic physiological saline-induced hyperalgesia, von Frey test). Type of assay: in vivo. The note with it: male SD rats, orally administered 5 and 10 mg/kg, 0.5-3 hours after administration (FIG. 1). The protocol:
Test Example 1: Effect for Pain Relief in a Hyperalgesia Model of Rat
An acidic physiological saline-induced hyperalgesia model, which is known as a model of diseases accompanied by chronic musculoskeletal pain was made according to the method described in Muscle & Nerve 24, p. 37-46 (2001) with a slight modification.
In this test, male SD rats (Sprague-Dawley rats; 6 weeks of age at the start of the test) were employed. Under ether anesthesia, 100 μl of physiological saline adjusted to pH 4 with acetic acid was injected to the rat's right gastrocnemius muscle twice at an interval of 5 days. At 10th and 11th days from the 2nd injection, the following test was conducted. […] In this connection, the pain threshold of normal rats was approximately 11 g.
The above hyperalgesia rats induced with an acidic physiological saline were placed in a stainless steel cage (750width×210depth×170height in mm) and accommodated thereto for at least 20 minutes. Thereafter, the pain threshold (g) was determined prior to administration of the test compound (0 hour) and 0.5 hour, 1 hour, 1.5 hours, 2 hours and 3 hours after the administration. […]
Hyperalgesia was evaluated by the von Frey test, and the results were indicated by the thresholds (g). […] The pain threshold (g) was calculated according to the W. J. Dixon's up-down method (Annual Review of Pharmacology and Toxicology, 20, p. 441-462 (1980)).

Each structure is given as a SMILES string.

With `CCn1c(=O)c2c(nc(/C=C/c3ccc(OC)c(OC)c3)n2C)n(CC)c1=O` [Compound 2], in assay [1], the “pain threshold (development of hyperalgesia)” value is reported as “no decrease”. Besides, the “pain threshold in comparison with that of the group treated with Solvent” value in assay [2] is “greatly increased”.
